Our source for the logP values is ChEMBL document CHEMBL1944551, “An integrated computational workflow for efficient and quantitative modeling of renin inhibitors” (Bioorg Med Chem, 2012).

A word on the logP: it is a log measure of how a compound divides between an organic and an aqueous phase. A higher logP goes with a more lipophilic compound.

The nature of the series: physchem. Conditions: octanol/buffer.
For `CCC(=O)NCc1ccc(Cl)c(CN(C(=O)[C@H]2CNCC(=O)N2c2ccc(OCCCOCc3ccccc3)cc2)C2CC2)c1`, the log partition coefficient (logP) is 5.04.

On to `CCC(=O)NCc1ccc(Cl)c(CN(C(=O)[C@H]2CNCC(=O)N2c2ccc(OCCCOCc3ccccc3OC)cc2)C2CC2)c1`, for which the logP came out at 5.

`CNC(=O)OCc1ccc(Cl)c(CN(C(=O)[C@H]2CNCC(=O)N2c2ccc(CCCOc3c(F)ccc(F)c3F)cc2)C2CC2)c1` yielded a logP of 5.48.

Compound `COC(=O)NCCc1ccc(Cl)c(CN(C(=O)[C@H]2CNCC(=O)N2c2ccc(OCCOc3c(Cl)cc(C)cc3Cl)cc2)C2CC2)c1` gave a lipophilicity (logP) of 5.67.

`COC(=O)NCCc1ccc(Cl)c(CN(C(=O)[C@H]2CNCC(=O)N2c2ccc(OCCOc3c(Cl)cc(C)cc3Cl)nc2)C2CC2)c1`: the logP was determined as 4.84.

`COC(=O)NCCc1ccc(Cl)c(CN(C(=O)[C@H]2CNCC(=O)N2c2ccc(COC(=O)c3ccccc3)cc2)C2CC2)c1` showed a logP of 4.57.

Take `COC(=O)NCCc1ccc(Cl)c(CN(C(=O)[C@H]2CNCC(=O)N2c2ccc(OCCCOCc3ccccc3)cc2)C2CC2)c1`: the log partition coefficient (logP) is 4.94.

As for `COC(=O)NCCc1ccc(Cl)c(CN(C(=O)[C@H]2CNCC(=O)N2c2ccc(OCCCOCc3ccccc3OC)cc2)C2CC2)c1`, the logP is 4.9.

On to `COC(=O)NCCc1ccc(Cl)c(CN(C(=O)[C@H]2CNCC(=O)N2c2cnc(OCCCOCc3ccccc3OC)nc2)C2CC2)c1`, for which the log partition coefficient (logP) is 2.88.

In turn, `COC(=O)NCCc1ccc(Cl)c(CN(C(=O)[C@H]2CNCC(=O)N2c2ccc(CCCOc3cccc(Cl)c3)cc2)C2CC2)c1` showed a logP of 5.74.

Consider `COC(=O)NCCc1ccc(Cl)c(CN(C(=O)[C@H]2CNCC(=O)N2c2ccc(CCCOc3c(F)ccc(F)c3F)cc2)C2CC2)c1`, for which the logP turned out to be 5.56.

As for `CNC(=O)CCc1ccc(Cl)c(CN(C(=O)[C@H]2CNCC(=O)N2c2ccc(COC(=O)c3ccccc3)cc2)C2CC2)c1`, the logP was 4.24.

`CNC(=O)CCc1ccc(Cl)c(CN(C(=O)[C@H]2CNCC(=O)N2c2ccc(OCCCOCc3ccccc3)cc2)C2CC2)c1` yielded a logP of 4.62.

Turning to `CNC(=O)CCc1ccc(Cl)c(CN(C(=O)[C@H]2CNCC(=O)N2c2ccc(OCCCOCc3ccccc3OC)cc2)C2CC2)c1`, the logP came to 4.57.

In turn, `CNC(=O)CCc1ccc(Cl)c(CN(C(=O)[C@H]2CNCC(=O)N2c2cnc(OCCCOCc3ccccc3OC)nc2)C2CC2)c1` had a logP of 2.56.

In the case of `CNC(=O)CCc1ccc(Cl)c(CN(C(=O)[C@H]2CNCC(=O)N2c2ccc(CCCOc3cccc(Cl)c3)cc2)C2CC2)c1`, the logP was 5.42.

For `CNC(=O)CCc1ccc(Cl)c(CN(C(=O)[C@H]2CNCC(=O)N2c2ccc(CCCOc3c(F)ccc(F)c3F)cc2)C2CC2)c1`, the logP is 5.24.

`CCC(=O)NCc1ccc(Cl)c(CN(C(=O)[C@H]2CNCC(=O)N2c2cnc(OCCCOCc3ccccc3OC)nc2)C2CC2)c1`: the logP came to 2.98.

For `CCC(=O)NCc1ccc(Cl)c(CN(C(=O)[C@H]2CNCC(=O)N2c2ccc(CCCOc3cccc(Cl)c3)cc2)C2CC2)c1`, the logP was determined as 5.84.

`CCC(=O)NCc1ccc(Cl)c(CN(C(=O)[C@H]2CNCC(=O)N2c2ccc(CCCOc3c(F)ccc(F)c3F)cc2)C2CC2)c1` had a log partition coefficient (logP) of 5.67.

In the case of `Cc1cc(Cl)c(OCCOc2ccc(N3C(=O)CNC[C@@H]3C(=O)N(Cc3cc(CC(=O)NC4CC4)ccc3Cl)C3CC3)cc2)c(Cl)c1`, the logP was found to be 5.91.

Turning to `Cc1cc(Cl)c(OCCOc2ccc(N3C(=O)CNC[C@@H]3C(=O)N(Cc3cc(CC(=O)NC4CC4)ccc3Cl)C3CC3)cn2)c(Cl)c1`, the logP was determined as 5.08.

`O=C(Cc1ccc(Cl)c(CN(C(=O)[C@H]2CNCC(=O)N2c2ccc(COC(=O)c3ccccc3)cc2)C2CC2)c1)NC1CC1` came in with a logP of 4.81.

Compound `O=C(Cc1ccc(Cl)c(CN(C(=O)[C@H]2CNCC(=O)N2c2ccc(OCCCOCc3ccccc3)cc2)C2CC2)c1)NC1CC1` showed a logP of 5.18.

The compound `COc1ccccc1COCCCOc1ccc(N2C(=O)CNC[C@@H]2C(=O)N(Cc2cc(CC(=O)NC3CC3)ccc2Cl)C2CC2)cc1` registered a logP of 5.14.

Take `COc1ccccc1COCCCOc1ncc(N2C(=O)CNC[C@@H]2C(=O)N(Cc2cc(CC(=O)NC3CC3)ccc2Cl)C2CC2)cn1`: the logP stood at 3.13.

In turn, `CNC(=O)OCCc1ccc(Cl)c(CN(C(=O)[C@H]2CNCC(=O)N2c2ccc(OCCOc3c(Cl)cc(C)cc3Cl)cc2)C2CC2)c1` registered a logP of 5.67.

In turn, `CNC(=O)OCCc1ccc(Cl)c(CN(C(=O)[C@H]2CNCC(=O)N2c2ccc(OCCOc3c(Cl)cc(C)cc3Cl)nc2)C2CC2)c1` returned a lipophilicity (logP) of 4.84.

With `CNC(=O)OCCc1ccc(Cl)c(CN(C(=O)[C@H]2CNCC(=O)N2c2ccc(COC(=O)c3ccccc3)cc2)C2CC2)c1`, the logP is 4.57.

Consider `CCNC(=O)Cc1ccc(Cl)c(CN(C(=O)[C@H]2CNCC(=O)N2c2ccc(OCCOc3c(Cl)cc(C)cc3Cl)cc2)C2CC2)c1`, for which the logP stood at 5.6.

Compound `CCNC(=O)Cc1ccc(Cl)c(CN(C(=O)[C@H]2CNCC(=O)N2c2ccc(OCCOc3c(Cl)cc(C)cc3Cl)nc2)C2CC2)c1` gave a logP of 4.77.

As to `CCNC(=O)Cc1ccc(Cl)c(CN(C(=O)[C@H]2CNCC(=O)N2c2ccc(COC(=O)c3ccccc3)cc2)C2CC2)c1`, the log partition coefficient (logP) is 4.49.

In turn, `CCNC(=O)Cc1ccc(Cl)c(CN(C(=O)[C@H]2CNCC(=O)N2c2ccc(OCCCOCc3ccccc3)cc2)C2CC2)c1` showed a logP of 4.87.

The compound `CCNC(=O)Cc1ccc(Cl)c(CN(C(=O)[C@H]2CNCC(=O)N2c2ccc(OCCCOCc3ccccc3OC)cc2)C2CC2)c1` had a logP of 4.82.

`CCNC(=O)Cc1ccc(Cl)c(CN(C(=O)[C@H]2CNCC(=O)N2c2cnc(OCCCOCc3ccccc3OC)nc2)C2CC2)c1` returned a logP of 2.81.

With `O=C(Cc1ccc(Cl)c(CN(C(=O)[C@H]2CNCC(=O)N2c2ccc(CCCOc3cccc(Cl)c3)cc2)C2CC2)c1)NC1CC1`, the logP was 5.98.

In turn, `O=C(Cc1ccc(Cl)c(CN(C(=O)[C@H]2CNCC(=O)N2c2ccc(CCCOc3c(F)ccc(F)c3F)cc2)C2CC2)c1)NC1CC1` registered a logP of 5.8.

As to `Cc1cc(Cl)c(OCCOc2ccc(N3C(=O)CNC[C@@H]3C(=O)N(Cc3cc(CNC(=O)C4CC4)ccc3Cl)C3CC3)cc2)c(Cl)c1`, the logP turned out to be 5.65.

`Cc1cc(Cl)c(OCCOc2ccc(N3C(=O)CNC[C@@H]3C(=O)N(Cc3cc(CNC(=O)C4CC4)ccc3Cl)C3CC3)cn2)c(Cl)c1` returned a logP of 4.82.

`O=C(OCc1ccc(N2C(=O)CNC[C@@H]2C(=O)N(Cc2cc(CNC(=O)C3CC3)ccc2Cl)C2CC2)cc1)c1ccccc1` yielded a logP of 4.54.

The compound `O=C(NCc1ccc(Cl)c(CN(C(=O)[C@H]2CNCC(=O)N2c2ccc(OCCCOCc3ccccc3)cc2)C2CC2)c1)C1CC1` came in with a logP of 4.92.

In turn, `COc1ccccc1COCCCOc1ccc(N2C(=O)CNC[C@@H]2C(=O)N(Cc2cc(CNC(=O)C3CC3)ccc2Cl)C2CC2)cc1` showed a log partition coefficient (logP) of 4.87.

On to `COc1ccccc1COCCCOc1ncc(N2C(=O)CNC[C@@H]2C(=O)N(Cc2cc(CNC(=O)C3CC3)ccc2Cl)C2CC2)cn1`, for which the logP came out at 2.86.

For `O=C(NCc1ccc(Cl)c(CN(C(=O)[C@H]2CNCC(=O)N2c2ccc(CCCOc3cccc(Cl)c3)cc2)C2CC2)c1)C1CC1`, the logP is 5.72.

On to `O=C(NCc1ccc(Cl)c(CN(C(=O)[C@H]2CNCC(=O)N2c2ccc(CCCOc3c(F)ccc(F)c3F)cc2)C2CC2)c1)C1CC1`, for which the logP is 5.54.

`CCNC(=O)Cc1ccc(Cl)c(CN(C(=O)[C@H]2CNCC(=O)N2c2ccc(CCCOc3c(F)ccc(F)c3F)cc2)C2CC2)c1`: the logP turned out to be 5.49.

For `CNC(=O)OCc1ccc(Cl)c(CN(C(=O)[C@H]2CNCC(=O)N2c2ccc(OCCOc3c(Cl)cc(C)cc3Cl)cc2)C2CC2)c1`, the lipophilicity (logP) was 5.58.

Turning to `CNC(=O)OCc1ccc(Cl)c(CN(C(=O)[C@H]2CNCC(=O)N2c2ccc(OCCOc3c(Cl)cc(C)cc3Cl)nc2)C2CC2)c1`, the log partition coefficient (logP) stood at 4.75.

Compound `CNC(=O)OCc1ccc(Cl)c(CN(C(=O)[C@H]2CNCC(=O)N2c2ccc(COC(=O)c3ccccc3)cc2)C2CC2)c1` had a logP of 4.48.

The compound `CNC(=O)OCc1ccc(Cl)c(CN(C(=O)[C@H]2CNCC(=O)N2c2ccc(OCCCOCc3ccccc3)cc2)C2CC2)c1` displayed a logP of 4.85.

Compound `CNC(=O)OCc1ccc(Cl)c(CN(C(=O)[C@H]2CNCC(=O)N2c2ccc(OCCCOCc3ccccc3OC)cc2)C2CC2)c1` returned a logP of 4.81.

Consider `CNC(=O)OCc1ccc(Cl)c(CN(C(=O)[C@H]2CNCC(=O)N2c2cnc(OCCCOCc3ccccc3OC)nc2)C2CC2)c1`, for which the logP is 2.8.

`CNC(=O)OCc1ccc(Cl)c(CN(C(=O)[C@H]2CNCC(=O)N2c2ccc(CCCOc3cccc(Cl)c3)cc2)C2CC2)c1` came in with a logP of 5.65.

The compound `CC(=O)NCc1ccc(Cl)c(CN(C(=O)[C@H]2CNCC(=O)N2c2ccc(OCCOc3c(Cl)cc(C)cc3Cl)cc2)C2CC2)c1` came in with a log partition coefficient (logP) of 5.29.

Compound `CC(=O)NCc1ccc(Cl)c(CN(C(=O)[C@H]2CNCC(=O)N2c2ccc(OCCOc3c(Cl)cc(C)cc3Cl)nc2)C2CC2)c1` showed a logP of 4.47.

As for `CC(=O)NCc1ccc(Cl)c(CN(C(=O)[C@H]2CNCC(=O)N2c2ccc(COC(=O)c3ccccc3)cc2)C2CC2)c1`, the logP amounted to 4.19.

In turn, `CC(=O)NCc1ccc(Cl)c(CN(C(=O)[C@H]2CNCC(=O)N2c2ccc(OCCCOCc3ccccc3)cc2)C2CC2)c1` registered a logP of 4.57.

The compound `COc1ccccc1COCCCOc1ccc(N2C(=O)CNC[C@@H]2C(=O)N(Cc2cc(CNC(C)=O)ccc2Cl)C2CC2)cc1` came in with a logP of 4.52.

In turn, `COc1ccccc1COCCCOc1ncc(N2C(=O)CNC[C@@H]2C(=O)N(Cc2cc(CNC(C)=O)ccc2Cl)C2CC2)cn1` came in with a logP of 2.51.

The compound `CC(=O)NCc1ccc(Cl)c(CN(C(=O)[C@H]2CNCC(=O)N2c2ccc(CCCOc3cccc(Cl)c3)cc2)C2CC2)c1` registered a logP of 5.37.

With `CC(=O)NCc1ccc(Cl)c(CN(C(=O)[C@H]2CNCC(=O)N2c2ccc(CCCOc3c(F)ccc(F)c3F)cc2)C2CC2)c1`, the logP came to 5.19.

As for `CCC(=O)NCc1ccc(Cl)c(CN(C(=O)[C@H]2CNCC(=O)N2c2ccc(OCCOc3c(Cl)cc(C)cc3Cl)cc2)C2CC2)c1`, the logP is 5.77.

In the case of `CCC(=O)NCc1ccc(Cl)c(CN(C(=O)[C@H]2CNCC(=O)N2c2ccc(OCCOc3c(Cl)cc(C)cc3Cl)nc2)C2CC2)c1`, the logP was found to be 4.94.

Compound `CCC(=O)NCc1ccc(Cl)c(CN(C(=O)[C@H]2CNCC(=O)N2c2ccc(COC(=O)c3ccccc3)cc2)C2CC2)c1` had a log partition coefficient (logP) of 4.67.
